Counter-ions that a name gives are not always drawn. Like-named read-outs stand apart in the source and are kept apart here.
What was measured:
[1] = system: Human breast cancer cell line BT-474; test: Evaluation of combination effects in vitro (WST-1 proliferation, Combination Index by Pegram method); type: cell-based; settings: for CI value (Combination Index) / D1 (concentration of test agent in combination required for fa): combination with Herceptin; for Df1 (concentration of test agent as single agent required for fa): fa 0.9, BT-474; for combination effect with Herceptin, overall evaluation by Combination Index: summary of Examples 1-3, BT-474
Protocol: The effects of the combined use were evaluated by calculating a Combination Index (CI) following a method of Pegram et al. (M. Pegram et al., Oncogene, 18, 2241-2251 (1999)). Human breast cancer cell line BT-474 (a cell line in which HER2 is highly expressed) was obtained from ATCC (American Type Culture Collection). In a medium comprising equal amount of D-MEM (Dulbecco's Modified Eagle Medium) medium and F-12 (Nutrient Mixture F-12) medium which further contains 2.5 mM L-glutamine, 10% bovine fetal serum (FCS) and 2.5 μg/ml amphotericin B, human breast cancer cell line BT-474 was subcultured. The culture was carried out in an incubator with 5% CO2 at 37° C. This medium was also used in the following experiments. HerceptinTM was dissolved in a dissolution solution attached thereto to prepare a 21 mg/ml stock solution. Thereafter, the solution was used after 2 fold serial dilutions with the medium. […] Doxorubicin hydrochloride was obtained from Kyowa Hakko Kogyo Co., Ltd. A 2 mg/ml solution was prepared by adding 5 ml of sterile water to a 10 mg vial, and the solution was used. Human breast cancer cell line BT-474 on subculture were subjected to a trypsin treatment, suspended in the medium, and seeded on a 96-well plate. The seeding density was set to be 1×10^4 cells/0.1 ml/well. After seeding, cells were cultured overnight in an incubator with 5% CO2 at 37° C. (Day 0). […] The experiments were conducted with n=3 for the agent-treated group, and with n=6 for the non-treated (control) group. Until Day 4, culture was conducted in an incubator with 5% CO2 at 37° C. […] Thereafter, culture was conducted in an incubator with 5% CO2 at 37° C. for 2-4 hours. Absorbance of the culture was then measured with MICROPLATE READER Model 3550-UV (BioRad), and living cell number was measured. […] CI and inhibition rate of proliferation fa were calculated as described above.

[2] = Cardiotoxicity test using monkey (combination with Herceptin); settings: rhesus monkey, intravenous, amrubicin hydrochloride at two times the dosage of doxorubicin hydrochloride
Protocol: The administration of amrubicin hydrochloride at a dosage of two times of doxorubicin hydrochloride is carried out on the basis of therapeutic dosages of both agents.
Into vein of a rhesus monkey, is administered doxorubicin at a dose of 2.92 mg/kg (35 mg/m^2), 7-8 times with three weeks intervals.
Accordingly, the agent-administered groups are set to be as follows:
1) agent non-administered group
2) doxorubicin hydrochloride 2-4 mg/kg, iv, 8q3W
4) amrubicin hydrochloride 4-8 mg/kg, iv, 8q3W
On 140-150 days post initiation of the administration, the animal is dissected, and histopathological diagnosis of the heart is carried out. Judging from the comparison of impairment of the myocardial cells, cardiotoxicity is evaluated.

topoisomerase II = settings: at a concentration which leads to 50% inhibition of cell proliferation; cited from earlier work
[3] = rabbit chronic experimental model, compared with doxorubicin; cited from earlier work
[4] = metabolite obtained by reduction in vivo; cited from earlier work
[5] = in vitro experiment, Pegram et al. 1999; cited from earlier work
[6] = rhesus monkey, iv 2.92 mg/kg (35 mg/m^2), 7-8 times with three weeks intervals, 140-150 days post initiation; cited from earlier work
[7] = compared with amrubicin and amrubicinol; cited from earlier work
[8] = clinical use; cited from earlier work
[9] = dosage ratio 40:1, fa 0.9, BT-474
[10] = dosage ratio 2:1, fa 0.9, BT-474
[11] = dosage ratio 4:1, fa 0.9, BT-474
[12] = dosage ratio 8:1, fa 0.9, BT-474
[13] = dosage ratio 2:1, fa 0.9, BT-474, CI<1 synergistic, CI=1 additive

| Compound | Df1 (concentration of test agent as single agent required for fa) [1] [µg/mL] | combination effect with Herceptin, overall evaluation by Combination Index [1] | cardiotoxicity in combination with Herceptin [2] | CI value (Combination Index) [1, 10] | D1 (concentration of test agent in combination required for fa) [1, 10] [µg/mL] | combination effect with Herceptin judged from CI value [1, 13] | stabilization of cleavable complex via topoisomerase II (topoisomerase II) | also measured |
| --- | --- | --- | --- | --- | --- | --- | --- | --- |
| CC(=O)[C@]1(N)Cc2c(O)c3c(c(O)c2[C@@H](O[C@H]2C[C@H](O)[C@H](O)CO2)C1)C(=O)c1ccccc1C3=O [Amrubicin hydrochloride, (+)-(7S,9S)-9-acetyl-9-amino-7-[(2-deoxy-β-D-erythro-pentopyranosyl)oxy]-7,8,9,10-tetrahydro-6,11-dihydroxy-5,12-naphthacenedione] | 7.542 | marked synergistic effects | cardiotoxicity is not presented |  |  |  |  | CI value (Combination Index) [1, 9]: 0.17; D1 (concentration of test agent in combination required for fa) [1, 9]: 1.267 µg/mL; combination effect with Herceptin judged from CI value [1, 9]: synergistic effect |
| CC(O)[C@]1(N)Cc2c(O)c3c(c(O)c2[C@@H](O[C@H]2C[C@H](O)[C@H](O)CO2)C1)C(=O)c1ccccc1C3=O.Cl (stereo partly drawn) [Amrubicinol hydrochloride] | 0.671 | marked synergistic effects |  | 0.38 | 0.239 | synergistic effect |  | CI value (Combination Index) [1, 11]: 0.33; D1 (concentration of test agent in combination required for fa) [1, 11]: 0.212 µg/mL; CI value (Combination Index) [1, 12]: 0.42; D1 (concentration of test agent in combination required for fa) [1, 12]: 0.279 µg/mL; combination effect with Herceptin judged from CI value ([1]; dosage ratio in the range of 2:1-8:1, fa 0.9, BT-474): synergistic effect |
| COc1cccc2c1C(=O)c1c(O)c3c(c(O)c1C2=O)C[C@@](O)(C(=O)CO)C[C@@H]3O[C@H]1C[C@H](N)[C@H](O)[C@H](C)O1 [Doxorubicin hydrochloride, reference compound] | 0.434 |  | cardiotoxicity is strongly presented | 0.92 | 0.373 | additive effect |  |  |
| CC(=O)[C@]1(N)Cc2c(O)c3c(c(O)c2[C@@H](O[C@H]2C[C@H](O)[C@H](O)CO2)C1)C(=O)c1ccccc1C3=O [amrubicin, (+)-(7S,9S)-9-acetyl-9-amino-7-[(2-deoxy-β-D-erythro-pentopyranosyl)oxy]-7,8,9,10-tetrahydro-6,11-dihydroxy-5,12-naphthacenedione] |  |  |  |  |  |  | sufficiently stabilize a cleavable complex | cardiotoxicity [3]: far less than that of doxorubicin |
| CC(O)[C@]1(N)Cc2c(O)c3c(c(O)c2[C@@H](O[C@H]2C[C@H](O)[C@H](O)CO2)C1)C(=O)c1ccccc1C3=O (stereo partly drawn) [amrubicinol] |  |  |  |  |  |  | sufficiently stabilize a cleavable complex | anti-cancer activity of metabolite compared with amrubicin [4]: stronger anti-cancer activity |
| COc1cccc2c1C(=O)c1c(O)c3c(c(O)c1C2=O)C[C@@](O)(C(=O)CO)C[C@@H]3O[C@H]1C[C@H](N)[C@H](O)[C@H](C)O1 [doxorubicin] |  |  |  |  |  |  | does not stabilize the cleavable complex | combination effect with Herceptin [5]: additive effects; histopathological observation of the heart [6]: vacuolation of myocardial cells; intercalation activity [7]: about ten times stronger than those of amrubicin and amrubicinol; cardiotoxicity in combination with Herceptin [8]: cardiotoxicity is developed at a high frequency |
